We go through four compounds from patent US20230242871A1, “GENERATION OF PRIMORDIAL GERM CELLS AND METHODS OF USING THE SAME” (The Board of Trustees of the Leland Stanfor Junior …, priority 2020, published 2023).

This test concerns NANOS3-mCherry hESCs. Nature of the test: PGC differentiation of NANOS3-mCherry hESCs, flow cytometry for NANOS3-mCherry fluorescent reporter expression. It counts as cell-based, human. As to conditions: for efficiency upon SCF/EGF subtraction: SCF/EGF subtraction from D0.5-1.5; for efficiency upon SCF/EGF subtraction / effect of absence of SCF and EGF on PGC differentiation / requirement on the D0.5-D1.5 interval: FIG. 5C; for effect of absence of SCF and EGF on PGC differentiation: absence in the same time window (24 hrs at day 2); for requirement on the D0.5-D1.5 interval: posterior epiblast differentiation into PGCs. From the text:
In the NANOS3-mCherry hESC line, a 2A-mCherry fluorescent reporter was inserted immediately downstream of the NANOS3 gene without disrupting its coding sequence (Irie et al., 2014). In the SOX17-GFP hESC line, a GFP fluorescent reporter was inserted immediately after the SOX17 start codon, thus functionally invalidating one SOX17 allele (Wang et al., 2011). In the NANOG-2A-YFP hESC line, Cas9 RNP/AAV6-based genome editing (Martin et al., 2019) was used to insert a 2A-iCaspase9-2A-YFP fluorescent reporter immediately downstream of the NANOG gene without disrupting the NANOG coding sequence.
hPSC differentiation into PGCs. Undifferentiated hPSCs were maintained in mTeSR1 + 1% penicillin/streptomycin and enzymatically passaged (Accutase, 1:8-1:12 split) for differentiation. After overnight recovery in mTeSR1 + Thiazovivin (ROCK inhibitor, 5 µM), the following morning, hPSCs were briefly washed (DMEM/F12) and differentiated into posterior epiblast for 12 hours (100 ng/mL Activin + 3 µM CHIR99021 + 10 µM Y-27632) in aRB27 basal media, which comprised Advanced RPMI 1640 medium supplemented with 1% B27 supplement, 0.1 mM non-essential amino acids (NEAA), 100 U/ml Penicillin + 0.1 mg/ml Streptomycin, and 2 mM L-Glutamine (Kobayashi et al., 2017). Subsequently, […], […], […], 100 ng/mL SCF, 50 ng/mL EGF, 1 µM XAV939, and 10 µM Y-27632 for 24 hours (all in aRB27 basal media). For comparison, published PGC differentiation protocols (Sasaki et al., 2015; Kobayashi et al., 2017) were performed as described previously.
Flow cytometry and fluorescence-activated cell sorting (FACS) for cell-surface marker expression. hPSCs or their differentiated derivatives were dissociated using TrypLE Express (Gibco), were washed off the plate with FACS buffer (PBS + 0.1% BSA fraction V [Gibco] + 1 mM EDTA [Gibco] + 1% penicillin/streptomycin [Gibco]) and were pelleted by centrifugation (5 mins, 4° C.). Subsequently, cell pellets were directly resuspended in FACS buffer containing pre-diluted primary antibodies (listed below), thoroughly triturated to ensure a single cell suspension, and primary antibody staining was conducted for 30 mins on ice. Afterwards, cells were washed with an excess of FACS buffer and pelleted again, and this was conducted one more time. Finally, washed cell pellets were resuspended in FACS buffer containing 1.1 µM DAPI (Biolegend), and were strained through a 35 µm filter. Flow cytometry and sorting was conducted on a BD FACSAria II (Stanford Stem Cell Institute FACS Core).
(A flow cytometer gives signals particle by particle.)

Consider `O=c1[nH]c(-c2ccc(C(F)(F)F)cc2)nc2c1CSCC2` [XAV939, 3,5,7,8-Tetrahydro-2-[4-(trifluoromethyl)phenyl]-4H-thiopyrano[4,3-d]pyrimidin-4-one, reference compound], for which the “differentiation of posterior epiblast into PGCs” value (phase II: 3 days in PGC-specifying media after 12 hours WNT agonist (phase I), FIG. 1F) is given as “promotes differentiation of posterior epiblast into PGCs”.

With “EGF: epidermal growth factor, UniProt P01133 (NSDSECPLSHDGYCLHDGVCMYIEALDKYACNCVVGYIGERCQYRDLKWWELR; UniProt P01133 971-1023, looked up)”, the “effect of absence of SCF and EGF on PGC differentiation” value is “superfluous”; the “requirement on the D0.5-D1.5 interval” value is reported as “dispensable”. The “efficiency upon SCF/EGF subtraction” value (readout D3.5) was “enhance efficiency”.

As for “LIF: LIF, commonly used to enhance PGC survival (Peprotech 300-05)”, the “requirement of LIF for the second differentiation stage” value (FIG. 5E) is listed as “dispensable”. In addition, the “efficiency upon addition of LIF” value (LIF added during D0.5-3.5, readout D3.5, FIG. 5E) is reported as “does not improve efficiency”.

As to “SCF: stem cell factor, also known as Kit ligand”, the “effect of absence of SCF and EGF on PGC differentiation” value is “superfluous”; the “requirement on the D0.5-D1.5 interval” value is given as “dispensable”. For the same compound, the “efficiency upon SCF/EGF subtraction” value (readout D3.5) is given as “enhance efficiency”.
